Experimental data published in ChEMBL document CHEMBL5150019, “Targeting Extracellular Signal-Regulated Protein Kinase 1/2 (ERK1/2) in Cancer: An Update on Pharmacological Small-Molecule Inhibitors” (J Med Chem, 2022).

Key:
MCF7 = experiment: Antiproliferative activity in human MCF7 cells assessed as cell growth inhibition measured after 24 hrs by MTT assay; type: functional, cell-based; conditions: MCF7, 24 h
[1] = target: Mitogen-activated protein kinase 1 (Rattus norvegicus, UniProt P63086); experiment: Binding affinity to rat full-length ERK2 using FQRKTLQRRNLKGLNLNL-XXX-TGPLSPGPF peptide as substrate in presence of [gamma33P]ATP by scintillation counter analysis
[2] = target: T1, Mitogen-activated protein kinase 1 (Homo sapiens, UniProt P28482); experiment: Inhibition of ERK2 (unknown origin)
[3] = target: T1, Mitogen-activated protein kinase 1; experiment: Binding affinity to ERK2 (unknown origin)
[4] = target: T2, Mitogen-activated protein kinase 3 (Homo sapiens, UniProt P27361); experiment: Inhibition of ERK1 (unknown origin)
[5] = Antitumor activity against patient-derived Pancreatic cancer cell xenografted in NMRI nu/nu mouse PAXF-2059 model assessed as cell growth inhibition; type: functional, cell-based; conditions: Homo sapiens
Lung cancer cell line = experiment: Antitumor activity against patient-derived Lung cancer cell line xenografted in NMRI nu/nu mouse LXFA-983 model assessed as cell growth inhibition; type: functional, cell-based; conditions: Homo sapiens
[6] = Antitumor activity against patient-derived Colorectal cancer cell xenografted in NMRI nu/nu mouse CXF-243 model assessed as cell growth inhibition; type: functional, cell-based; conditions: Homo sapiens
[7] = Antiproliferative activity in mouse MB49 cells assessed as cell growth inhibition; type: functional, cell-based
UMUC3 = experiment: Antiproliferative activity in human UMUC3 cells assessed as cell growth inhibition; type: functional, cell-based
[8] = target: T2, Mitogen-activated protein kinase 3; experiment: Binding affinity to ERK1 (unknown origin)
[9] = target: T2, Mitogen-activated protein kinase 3; experiment: Binding affinity to ERK1 (unknown origin) measured after 20 mins in presence of [gamma33P]ATP by scintillation counter analysis

T2 sequence (P27361 whole entry): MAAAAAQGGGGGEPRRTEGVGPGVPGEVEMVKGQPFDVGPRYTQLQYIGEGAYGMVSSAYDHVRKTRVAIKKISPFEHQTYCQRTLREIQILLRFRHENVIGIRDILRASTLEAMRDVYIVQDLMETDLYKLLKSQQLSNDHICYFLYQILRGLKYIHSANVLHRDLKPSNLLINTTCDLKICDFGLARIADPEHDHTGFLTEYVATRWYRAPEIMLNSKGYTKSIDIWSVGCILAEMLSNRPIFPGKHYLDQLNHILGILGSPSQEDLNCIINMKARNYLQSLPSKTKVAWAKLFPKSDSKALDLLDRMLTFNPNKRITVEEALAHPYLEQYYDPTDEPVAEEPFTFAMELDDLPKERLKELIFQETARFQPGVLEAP
T1 sequence (P28482 whole entry): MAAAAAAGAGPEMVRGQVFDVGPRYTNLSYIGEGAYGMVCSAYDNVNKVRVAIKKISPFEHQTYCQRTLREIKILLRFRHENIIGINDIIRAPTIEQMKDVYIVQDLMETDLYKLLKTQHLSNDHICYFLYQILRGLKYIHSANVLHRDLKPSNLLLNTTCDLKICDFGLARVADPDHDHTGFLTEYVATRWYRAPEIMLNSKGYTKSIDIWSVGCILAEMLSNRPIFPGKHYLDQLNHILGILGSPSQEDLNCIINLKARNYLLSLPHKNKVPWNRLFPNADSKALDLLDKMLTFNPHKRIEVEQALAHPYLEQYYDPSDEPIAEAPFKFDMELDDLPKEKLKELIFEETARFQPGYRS
Mitogen-activated protein kinase 1 (Rattus norvegicus, UniProt P63086), sequence (P63086 whole entry): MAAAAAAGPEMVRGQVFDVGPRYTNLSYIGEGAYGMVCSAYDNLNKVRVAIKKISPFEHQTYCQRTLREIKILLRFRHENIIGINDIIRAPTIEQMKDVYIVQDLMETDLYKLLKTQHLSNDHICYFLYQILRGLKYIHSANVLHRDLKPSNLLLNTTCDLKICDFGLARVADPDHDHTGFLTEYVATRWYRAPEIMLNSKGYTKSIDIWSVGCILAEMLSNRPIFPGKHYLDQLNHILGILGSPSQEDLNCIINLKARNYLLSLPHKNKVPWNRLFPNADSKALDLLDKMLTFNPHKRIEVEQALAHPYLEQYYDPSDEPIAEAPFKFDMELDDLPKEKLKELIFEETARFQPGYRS

Compound `Clc1cc(Cl)cc(C(Cn2ccnc2)OCc2nc3ccccc3s2)c1` (stereo unspecified) has an IC50 (MCF7) of 5000 nM.
For `O=[N+]([O-])c1cnc(Sc2nnc(O)n2-c2ccc3c(c2)OCCO3)s1`, the Ki [1] was 2300 nM.
`COc1ccc2[nH]cc(/C=C3\C(=O)Nc4ccc(NC(=O)CCN5CCCCC5)cc43)c2c1` showed an IC50 [2] of 500 nM.
In the case of `N=C(N)NCCC[C@H]1CNC(=N)N1CCN(CCN1C[C@H](CCCNC(=N)N)N(CCCC2CCCCC2)C1=N)CCN1C[C@H](CCCNC(=N)N)N(CCc2cccc(Br)c2)C1=N`, the Kd [3] is reported as 380 nM and the IC50 [2] is reported as 9900 nM.
`C=CC(=O)Nc1cc(C)ccc1Nc1nc(Nc2cc(OC)ncc2C)ncc1C(F)(F)F` gave an IC50 [2] of 10 nM, an IC50 [4] of 10 nM and an IC50 [5] of 621 nM. The IC50 (Lung cancer cell line) was 800 nM and the IC50 [6] was 586 nM.
`Cc1cnc(NC2CCOCC2)nc1-n1cnc(C(=O)N[C@H](CN)c2cc(F)cc(Cl)c2)c1` [ASN007] gave an IC50 [2] of 2 nM and an IC50 [4] of 2 nM.
`O=C1Nc2cc3[nH]nc(-c4ccncc4)c3cc2CN1Cc1ccccc1` [KO-947] gave an IC50 [2] of 10 nM and an IC50 [4] of 10 nM.
In the case of `N=C(N)NC(=N)NCCc1ccccc1` [PHENFORMIN], the IC50 [7] is reported as 570000 nM and the IC50 (UMUC3) is reported as 250000 nM.
Compound `Cn1nccc1Nc1nccc(-c2cc3c(s2)C(C)(C)N(CCN2CCOCC2)C3=O)n1` [TEMUTERKIB] has a Ki [3] of 0.064 nM, an IC50 [2] of 5 nM and an IC50 [4] of 5 nM. The Ki [8] was 0.65 nM.
`CC(C)Nc1cc(-c2c[nH]c(C(=O)N[C@H](CO)c3cccc(Cl)c3)c2)c(Cl)cn1` [ULIXERTINIB] showed a Ki [9] of under 0.3 nM.
